Ends that are not written are not given here.
How the values were obtained:
[1] = body temperature by telemetry after intracerebroventricular infusion; type: in vivo, rats
Description: (§1) Synthetic, amidated hcrt2 peptide at different concentrations was infused intracerebroventricularly in rats and body temperature by was monitored telemetry. Stereotactic ablation studies have previously implicated the dorsal-lateral hypothalamus in feeding behavior, blood pressure, and central regulation of immune function, although precise nuclei have not been correlated with these activities. A threshold-type response was obtained in which, at the highest dose, 10 μg, body temperature dropped from 37.7 to 36.7 degrees Celsius over 30 minutes following administration, then recovered to normal over 2 hours. Food intake was monitored over 2 hours following administration and a 40% reduction in food intake was measured at a dose of 5 μg. […] The presumed target cells of hypocretin may not be very accessible by this unphysiological mode of administration. Local injection or intravenous administration of hypocretin might be more suitable for physiological studies.

[2] = system: synaptically-coupled rat hypothalamic neurons; assay: voltage clamp recording of postsynaptic currents in cultured hypothalamic neurons; type: cell-based
Description: To test this hypothesis, 10-day cultures of synaptically-coupled rat hypothalamic neurons were prepared and postsynaptic currents were recorded under voltage clamp.
Rat hypothalamus from 18-day embryos was cultured for 10 days in vitro. The mediobasal hypothalamus was removed from embryonic day 18 Sprague Dawley rats. The tissue was enzymatically digested in a mild protease solution (10 U/ml papain and 0.2 mg/ml L-cysteine in Earle's balanced salt solution) for 30 minutes. Next, the tissue was pelleted, and the protease solution was removed. Tissue was then suspended in standard tissue culture medium (glutamate- and […] DMEM supplemented with 10% fetal bovine serum, 100 U/ml penicillin/streptomycin, and 6 gm/l glucose) and then triturated into a single-cell suspension. Cells were washed and pelleted an additional three times. The single-cell suspension was plated onto 22 mm^2 glass coverslips that had been coated with high-molecular-weight (540,000 Da) poly-D-lysine. High-density cultures (200,000/cm^2) were used for all experiments. Hypothalamic neural cultures were maintained in a Napco 3600 incubator (37 degree Celsius and 5% CO2) until they were ready for use. To limit non-neuronal cell proliferation cytosine arabinofuranoside (1 μM) was added to the tissue culture medium 1 day after plating.
Synaptically coupled hypothalamic neurons were recorded in voltage clamp with a whole cell pipette (holding potential=−60 mV). This recording is typical of 9 of 12 cells examined under these conditions. […] Inset boxes show higher resolution of the events indicated by the dotted line. Both boxes (in FIGS. 7A and B) were recorded with an identical delay after hcrt2 administration. A less mature hypothalamic neuron after 4 days of culture was unresponsive to 1 μM hcrt2 (FIG. 7B). Pipette solution contained 128 mM KMeSO4, 27 mM KCl, 0.4 mM EGTA, 1 mM ATP, and 0.5 mM GTP.

[3] = food intake after intracerebroventricular infusion; type: in vivo, rats; details: 5 μg ICV; monitored over 2 hours following administration
Description: as §1

[4] = system: synaptically coupled hippocampal dentate granule neurons in culture; assay: voltage clamp recording in cultured hippocampal dentate granule neurons; type: cell-based
[5] = 1 μM applied to bath, 10 days in vitro, holding potential −60 mV
[6] = 1 μM, 10-day cultures, voltage clamp

For “hcrt2: synthetic peptide corresponding to amidated hcrt2; preprohypocretin residues about 70 to 96 (SEQ ID NO:10; unamidated form SEQ ID NO:9) (PGPPGLQGRLQRLLQANGNHAAGILTM-NH2)”, the “body temperature after administration” value ([1]; 10 μg (highest dose) ICV, dropped from 37.7 over 30 minutes) was 36.7 degrees Celsius, the “time to recovery of body temperature to normal” value ([1]; 10 μg ICV) was 2 h and the “cells showing the typical recording (increased PSC frequency)” value [2, 5] was 9 of 12. The “increase in frequency of postsynaptic events (PSCs)” value [2, 5] was no more than 400%, the “cells showing no response” value [2, 6] was 25% and the “neurons tested showing substantial, reversible increase in the frequency of postsynaptic currents” value [2, 6] was 75%. For the same substance, the “response of less mature hypothalamic neuron after 4 days of culture” value ([2]; 1 μM, 4 days of culture (FIG. 7B)) was “unresponsive”, the “frequency of PSCs after washout of the peptide” value ([2]; after washout of 1 μM) was “returned to normal baseline levels” and the “electrical responses in voltage clamp experiments (FIGS. 7A-7B legend)” value ([2]; application of 1 μg, isolated in vitro rat hypothalamic cells) was “produced electrical responses in adult but not immature neurons”. The “response of hypothalamic neurons in culture for only 3-5 days” value ([2]; neurons 3-5 days in culture) was “little response”, the “reduction in food intake” value [3] was 40% and the “response of hippocampal dentate granule neurons” value [4] was “no response”.

— patent US6635479B1, “Hypothalamus-specific polypeptides” (The Scripps Research Institute, priority 1996, dated 2003)
